Experimental findings from PMC11272598, “RG7774 (Vicasinabin), an orally bioavailable cannabinoid receptor 2 (CB2R) agonist, decreases retinal vascular permeability, leukocyte adhesion, and ocular inflammation in animal models” (Frontiers in Pharmacology, 2024) are described below.

Each structure is given as a SMILES string.

Experiment [1] concerns the target T1, endogenous CB2R in mouse spleen tissues (Mus musculus, UniProt P47936).
T1 construct: from tissue; host or cells: mouse spleen membranes
As to the kind of experiment: Competition binding, [^3H]-RO6753361, mouse spleen membranes. As for the experimental part: Competition and saturation binding assays were performed using the radiolabeled CB1R/CB2R agonist [^3H]-CP55940 (PerkinElmer, Waltham, MA, United States) in recombinant cell systems, and the newly developed CB2R-selective agonist [^3H]-RO6753361 ([Chicca et al., 2024]) in cells expressing endogenous CB1R/CB2R. Competition assays were conducted by incubating 5, 40, or 40 µg of membrane protein from CHO cells, Jurkat cells or spleen cells, respectively, with 1.5 nM [^3H]-CP55940 or 1.5 nM [^3H]-RO6753361 in the presence or absence of increasing concentrations of ligand (RG7774 or control) for 2 h at 30°C in a final volume of 0.2 mL of assay buffer (50 mmol/L Tris-HCl, 5 mmol/L MgCl2, 2.5 mmol/L EDTA, and 0.5% fatty acid-free BSA [pH 7.4] and 1% DMSO), with gentle shaking. Saturation binding assays were conducted by incubating 1–3 μg, 40 μg, or 30–40 μg of membrane protein from CHO cells, Jurkat cells, or spleen tissue, respectively, with 12 concentrations in the range of 80–0.039 nM [^3H]-CP55940 or [^3H]-RO6753361 for 2 h at 30°C in a final volume of 0.2 mL/well of assay buffer without DMSO. […] IC50 values and Hill slopes were determined with a 4-parameter logistic model using ActivityBase (ID Business Solution, Guilford, United Kingdom) and pKi values were determined using the Cheng-Prusoff equation ([Cheng and Prusoff, 1973]).

The test system of experiment [2] is STZ-induced diabetes retinal vascular permeability. Briefly: Rats with STZ-induced type 1 diabetes (fluorophotometry). It counts as in vivo, Long Evans rats. The following applies: STZ diabetic rats, 10 mg/kg daily oral gavage, 6 weeks after STZ, normalized to plasma. As for the experimental part:
Twenty-six male Long Evans rats (outbred) (Charles River Laboratories, Sulzfeld, Germany) aged 7 weeks and weighing 250–270 g at the beginning of the study were housed in individually ventilated cages with a maximum density of n = 2 rats per cage with the same sex and monitored daily. Bedding for diabetic animals was changed daily. The room was kept at 20°C–24°C with 50%–60% humidity and a 12/12 h light-dark cycle. Rats received a standard diet and water ad libidum, in addition to soaked food or soft diet. For animal welfare and for dosing purposes, animals were weighed every other day. Rats were sacrificed if weight loss was greater than 20% of the original weight, or more than 20% of body gain within 1 week.
Animals were fasted overnight and injected the following morning with IP 60 mg/kg (60 mg/mL at 1 mL/kg) STZ as reported previously ([Kim et al., 2007]; [Furman, 2015]) in 0.05 M sodium citrate buffer (pH 4.5). […]
To quantify fluorotron measurements, raw data were generated, exported as .txt files, and plotted using Microsoft Excel. The average AUC was calculated for 5 steps in the region of the scans corresponding to the vitreous peak. […] All data are expressed as mean ± SEM ng/mL ratios of vitreous:plasma fluorescein. Fluorophotometry data were analyzed using 2-way ANOVA followed by Newman–Keuls multiple comparisons test. […]

T1 sequence (P47936 whole entry): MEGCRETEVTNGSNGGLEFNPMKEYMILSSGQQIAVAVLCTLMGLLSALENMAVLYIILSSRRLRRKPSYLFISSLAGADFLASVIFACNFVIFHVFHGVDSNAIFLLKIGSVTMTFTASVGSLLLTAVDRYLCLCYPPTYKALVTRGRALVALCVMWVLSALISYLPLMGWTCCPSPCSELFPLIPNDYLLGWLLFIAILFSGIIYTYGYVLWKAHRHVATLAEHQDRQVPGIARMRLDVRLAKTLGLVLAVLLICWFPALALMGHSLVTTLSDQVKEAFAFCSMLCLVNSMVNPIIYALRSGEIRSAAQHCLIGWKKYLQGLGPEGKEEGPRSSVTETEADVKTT

On to `Cn1nnnc1Cn1nnc2c(N3CC[C@H](O)C3)nc(C(C)(C)C)nc21` [RG7774, (S)-1-(5-tert-butyl-3-[(1-methyl-1H-tetrazol-5-yl)methyl]-3H-[1,2,3]triazolo[4,5-d]pyrimidin-7-yl)pyrrolidin-3-ol], for which, in experiment [1], the Ki (commonly the equilibrium dissociation constant of an inhibitor or competing ligand from its target) came out at 39.7 ± 13.5 nM. For the same molecule, the vitreous fluorescein in experiment [2] amounted to 25.6 ng/mL.
